Assay: xn = mol fraction of the nth substance listed
Settings: 100.8 kPa, Liquid

CCC(C)=O [butanone] + CC(C)CC(C)(C)C
Settings	mass density, 298.15 K [kg/m3]	mass density, 308.15 K [kg/m3]	mass density, 318.15 K [kg/m3]	viscosity, 298.15 K [mPa·s]	viscosity, 308.15 K [mPa·s]	viscosity, 318.15 K [mPa·s]
x1 = 0.05	690.1	681.7	673.1	0.461	0.416	0.374
x1 = 0.1	692.7	684.2	675.4	0.451	0.408	0.367
x1 = 0.15	695.6	687	678.2	0.443	0.4	0.36
x1 = 0.2	698.7	690.1	681.1	0.436	0.394	0.354
x1 = 0.25	702.2	693.4	684.3	0.429	0.388	0.349
x1 = 0.3	705.9	697	687.8	0.423	0.382	0.344
x1 = 0.35	709.9	700.9	691.6	0.417	0.377	0.339
x1 = 0.4	714.1	705.1	695.7	0.412	0.372	0.335
x1 = 0.45	718.7	709.5	700.1	0.407	0.368	0.331
x1 = 0.5	723.6	714.3	704.8	0.402	0.363	0.328
x1 = 0.55	728.8	719.4	709.8	0.398	0.36	0.325
x1 = 0.6	734.5	724.9	715.3	0.394	0.356	0.322
x1 = 0.65	740.6	731	721.2	0.39	0.353	0.32
x1 = 0.7	747.2	737.4	727.5	0.387	0.35	0.317
x1 = 0.75	754.2	744.3	734.3	0.384	0.347	0.315
x1 = 0.8	761.9	751.9	741.7	0.381	0.345	0.313
x1 = 0.85	770.4	760.2	749.9	0.379	0.343	0.311
x1 = 0.9	779.3	769	758.6	0.377	0.342	0.309
x1 = 0.95	789.2	778.8	768.2	0.377	0.341	0.308
x1 = 1	799.7	789.2	778.4	0.378	0.341	0.307

CC(C)CC(C)(C)C [2,2,4-trimethylpentane] + CCC(C)=O
x2 = 0
Settings	mass density [kg/m3]	viscosity [mPa·s]
298.15 K	687.8	0.474
308.15 K	679.5	0.426
318.15 K	671	0.382

CCO [ethanol] + CC(C)CC(C)(C)C
x1 = 1
Settings	mass density [kg/m3]	viscosity [mPa·s]
298.15 K	785.1	1.088
308.15 K	776.5	0.904
318.15 K	767.7	0.763

CCC(C)=O [butanone] + CCO
Settings	mass density, 298.15 K [kg/m3]	mass density, 308.15 K [kg/m3]	mass density, 318.15 K [kg/m3]	viscosity, 298.15 K [mPa·s]	viscosity, 308.15 K [mPa·s]	viscosity, 318.15 K [mPa·s]
x2 = 0	799.7	789.2	778.4	0.378	0.341	0.307
x2 = 0.05	799.3	788.8	778	0.38	0.345	0.313
x2 = 0.1	798.9	788.3	777.6	0.386	0.349	0.316
x2 = 0.15	798.4	787.9	777.2	0.393	0.353	0.32
x2 = 0.2	797.9	787.4	776.8	0.4	0.359	0.324
x2 = 0.25	797.4	787	776.4	0.409	0.366	0.33
x2 = 0.3	796.9	786.5	776	0.42	0.376	0.337
x2 = 0.35	796.4	786.1	775.6	0.431	0.387	0.345
x2 = 0.4	795.8	785.6	775.2	0.446	0.397	0.355
x2 = 0.45	795.2	785.1	774.7	0.469	0.412	0.365
x2 = 0.5	794.6	784.6	774.3	0.49	0.426	0.381
x2 = 0.55	794	784	773.8	0.512	0.443	0.398
x2 = 0.6	793.3	783.4	773.3	0.539	0.467	0.412
x2 = 0.65	792.6	782.8	772.8	0.576	0.493	0.434
x2 = 0.7	791.8	782.1	772.2	0.618	0.526	0.456
x2 = 0.75	790.9	781.4	771.6	0.673	0.56	0.482
x2 = 0.8	790	780.6	771	0.734	0.601	0.519
x2 = 0.85	788.9	779.7	770.3	0.799	0.654	0.56
x2 = 0.9	787.8	778.7	769.5	0.869	0.722	0.613
x2 = 0.95	786.6	777.7	768.6	0.961	0.803	0.676

Reference: the NIST ThermoML archive (doi:10.1021/je049655w)
